# Assay results published in ChEMBL document CHEMBL1131418, “Antiviral oligo- and polyribonucleotides containing selected triazolo[2,3-a]purines” (J Med Chem, 1998).
# Experiments:
# MRC5 [1] = experiment: Cytotoxic dose for anti-HCMV activity against AD-169 strain in MRC-5 cells; format: functional; details: Homo sapiens, read-out: CD50 (the source's name)
# MRC5 [2] = experiment: Inhibitory concentration for anti-HCMV activity against AD-169 strain in MRC-5 cells; format: functional, cell-based; details: Homo sapiens
# [3] = Therapeutic index for anti-HCMV activity against AD-169 strain in MRC-5 cells; format: cell-based; details: human, mrc5
# [4] = Therapeutic index for anti-HIV activity against HIV-IIIB in CEM-SS cells; format: cell-based
smiles,measurement,setting,value
Nc1nc(O)c2ncn(COC(CO)CO)c2n1 [GANCICLOVIR],CC50,MRC5 [1],> 125 µM
same,IC50,MRC5 [2],6.3 µM
same,TI,[3],> 20
CCN(CC)C(=S)[S][Na] [DITIOCARB SODIUM],TI,[4],> 67
